Measured values taken from patent US20100204224A1, “AZACYCLIC COMPOUNDS AS INHIBITORS OF SENSORY NEURONE SPECIFIC SODIUM CHANNELS” (priority 2005, published 2010).
Where a name gives a salt, the structure may show the parent alone.

Biological target: T1, human Nav1.8 (hNav1.8) ion channel (Homo sapiens, UniProt Q9Y5Y9)
T1 construct: expressed in transfected cells
Experiment: Inhibition of human Nav1.8 stably expressed in SH-SY-5Y cells (membrane potential dye fluorescence assay)
Type: cell-based
Details: SH-SY-5Y hNav1.8 cells; FLIPR membrane potential dye; 10 μM pyrethroid, 250 nM TTX; test concentration range 100 μM-0.05 μM; read-out: hNav1.8 IC50

T1 sequence (Q9Y5Y9 whole entry): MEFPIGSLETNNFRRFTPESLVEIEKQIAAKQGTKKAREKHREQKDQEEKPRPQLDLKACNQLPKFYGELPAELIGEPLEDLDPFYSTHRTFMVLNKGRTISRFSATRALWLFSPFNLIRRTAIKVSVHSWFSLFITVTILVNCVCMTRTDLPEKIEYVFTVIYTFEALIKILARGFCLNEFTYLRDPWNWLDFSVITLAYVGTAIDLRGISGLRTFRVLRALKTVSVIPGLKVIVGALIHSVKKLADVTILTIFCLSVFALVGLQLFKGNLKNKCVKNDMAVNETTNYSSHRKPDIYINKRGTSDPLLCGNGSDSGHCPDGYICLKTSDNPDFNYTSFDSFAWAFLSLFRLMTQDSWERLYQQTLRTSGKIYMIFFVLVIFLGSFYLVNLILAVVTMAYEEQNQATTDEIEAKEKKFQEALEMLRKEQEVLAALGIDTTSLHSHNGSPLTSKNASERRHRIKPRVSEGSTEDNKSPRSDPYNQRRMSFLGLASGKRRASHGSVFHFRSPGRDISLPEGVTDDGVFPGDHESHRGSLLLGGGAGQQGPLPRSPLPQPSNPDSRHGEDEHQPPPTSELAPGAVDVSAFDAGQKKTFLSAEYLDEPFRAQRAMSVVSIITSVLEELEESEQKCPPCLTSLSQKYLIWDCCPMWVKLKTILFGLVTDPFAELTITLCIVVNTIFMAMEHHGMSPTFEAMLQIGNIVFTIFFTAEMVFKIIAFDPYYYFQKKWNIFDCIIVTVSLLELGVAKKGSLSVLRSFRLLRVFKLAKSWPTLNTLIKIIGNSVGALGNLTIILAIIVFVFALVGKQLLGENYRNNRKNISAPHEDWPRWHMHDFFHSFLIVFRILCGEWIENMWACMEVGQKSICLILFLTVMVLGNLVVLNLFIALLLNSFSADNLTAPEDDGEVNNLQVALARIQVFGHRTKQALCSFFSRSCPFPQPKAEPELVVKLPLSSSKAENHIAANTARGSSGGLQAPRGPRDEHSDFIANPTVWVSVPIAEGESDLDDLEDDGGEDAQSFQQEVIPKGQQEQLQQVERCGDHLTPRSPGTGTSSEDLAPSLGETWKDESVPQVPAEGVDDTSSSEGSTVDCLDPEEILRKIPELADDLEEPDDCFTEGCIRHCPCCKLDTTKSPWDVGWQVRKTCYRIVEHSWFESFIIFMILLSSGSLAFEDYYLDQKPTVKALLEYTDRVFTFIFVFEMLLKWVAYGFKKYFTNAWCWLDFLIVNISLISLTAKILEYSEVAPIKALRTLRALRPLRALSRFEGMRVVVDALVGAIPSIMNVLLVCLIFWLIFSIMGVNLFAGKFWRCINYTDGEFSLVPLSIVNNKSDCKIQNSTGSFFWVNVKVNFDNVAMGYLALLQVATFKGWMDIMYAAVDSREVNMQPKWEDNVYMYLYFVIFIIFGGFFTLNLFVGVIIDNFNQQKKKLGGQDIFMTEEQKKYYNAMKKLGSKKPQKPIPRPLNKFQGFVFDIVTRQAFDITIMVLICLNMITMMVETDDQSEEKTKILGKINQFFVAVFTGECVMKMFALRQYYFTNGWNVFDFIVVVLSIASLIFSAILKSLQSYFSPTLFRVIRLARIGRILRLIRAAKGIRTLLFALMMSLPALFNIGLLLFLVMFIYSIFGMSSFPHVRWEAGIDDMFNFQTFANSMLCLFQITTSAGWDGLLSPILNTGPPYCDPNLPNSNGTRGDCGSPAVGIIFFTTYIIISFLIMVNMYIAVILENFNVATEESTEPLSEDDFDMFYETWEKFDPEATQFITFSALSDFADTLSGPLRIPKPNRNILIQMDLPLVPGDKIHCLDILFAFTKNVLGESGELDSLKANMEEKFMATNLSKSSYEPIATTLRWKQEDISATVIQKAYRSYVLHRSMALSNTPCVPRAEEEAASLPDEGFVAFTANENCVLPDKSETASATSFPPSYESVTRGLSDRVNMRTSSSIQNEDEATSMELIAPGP

Row | SMILES | IC50 [nM]
1 | CC(c1ccc(F)cc1)N1CC2CC1CN2C(=O)Nc1ccc(Oc2ccccc2)cc1 (stereo not shown) [Example 48, 5-[1-(4-Fluoro-phenyl)-ethyl]-2,5-diaza-bicyclo[2.2.1]heptane-2-carboxylic acid (4-phenoxy-phenyl)-amide] | 420
2 | Cc1ccc(C(C)N2CC3CC2CN3C(=O)Nc2ccc(Oc3ccc(F)cc3)cc2)c(C)c1 (stereo not shown) [Example 116, 5-[1-(2,4-Dimethyl-phenyl)-ethyl]-2,5-diaza-bicyclo[2.2.1]heptane-2-carboxylic acid [4-(4-fluoro-phenoxy)-phenyl]-amide] | 290
3 | CC(c1ccccc1Cl)N1CC2CC1CN2C(=O)Nc1ccc(Oc2ccc(Cl)cc2)cc1 (stereo not shown) [Example 128, 5-[1-(2-Chloro-phenyl)-ethyl]-2,5-diaza-bicyclo[2.2.1]heptane-2-carboxylic acid [4-(4-chloro-phenoxy)-phenyl]-amide] | 1420
4 | Cc1cc(F)ccc1C(C)N1CC2CC1CN2C(=O)Nc1ccc(Oc2ccccc2)cc1 (stereo not shown) [Example 64, 5-[1-(4-Fluoro-2-methyl-phenyl)-ethyl]-2,5-diaza-bicyclo[2.2.1]heptane-2-carboxylic acid (4-phenoxy-phenyl)-amide] | 270
5 | Cc1ccccc1C(C)N1CC2CC1CN2C(=O)Nc1ccc(OC2CCN(Cc3ccccc3)CC2)cc1 (stereo not shown) [Example 40, 5-(1-o-Tolyl-ethyl)-2,5-diaza-bicyclo[2.2.1]heptane-2-carboxylic acid [4-(1-benzyl-piperidin-4-yloxy)-phenyl]-amide] | 2010
6 | CC(c1ccc(C#N)cc1)N1CC2CC1CN2C(=O)Nc1ccc(Oc2ccc(F)cc2)cc1 (stereo not shown) [Example 91, 5-[1-(4-Cyano-phenyl)-ethyl]-2,5-diaza-bicyclo[2.2.1]heptane-2-carboxylic acid [4-(4-fluoro-phenoxy)-phenyl]-amide] | 1050
7 | O=C(Nc1ccc(Oc2ccccc2F)cc1)N1CC2CC1CN2C1Cc2ccccc2C1 (stereo not shown) [Example 113, 5-Indan-2-yl-2,5-diaza-bicyclo[2.2.1]heptane-2-carboxylic acid [4-(2-fluoro-phenoxy)-phenyl]-amide] | 540
8 | CC(c1ccccc1Cl)N1CC2CC1CN2C(=O)c1ccc(Oc2ccc(F)cc2)c(F)c1 (stereo not shown) [Example 178, {5-[1-(2-Chloro-phenyl)-ethyl]-2,5-diaza-bicyclo[2.2.1]hept-2-yl}-[3-fluoro-4-(4-fluoro-phenoxy)-phenyl]-methanone methanesulfonate salt] | 610
9 | O=C(Nc1ccc(Oc2ccccc2)cc1)N1CC2CC1CN2C1Cc2ccc(F)cc2C1 (stereo not shown) [Example 125, 5-(5-Fluoro-indan-2-yl)-2,5-diaza-bicyclo[2.2.1]heptane-2-carboxylic acid (4-phenoxy-phenyl)-amide] | 780
10 | CC(c1ccccc1Cl)N1CCC2(CCN(C(=O)Nc3ccc(Oc4ccc(F)cc4)cc3)C2)C1 (stereo not shown) [Example 111, 7-[1-(2-Chloro-phenyl)-ethyl]-2,7-diaza-spiro[4.4]nonane-2-carboxylic acid [4-(4-fluoro-phenoxy)-phenyl]-amide] | 380
11 | CC(c1c(F)cccc1F)N1CC2CC1CN2C(=O)Nc1ccc(Oc2ccccc2)cc1 (stereo not shown) [Example 10, 5-[1-(2,6-Difluoro-phenyl)-ethyl]-2,5-diaza-bicyclo[2.2.1]heptane-2-carboxylic acid (4-phenoxy-phenyl)-amide] | 1100
12 | CC(c1ccc(Cl)cc1Cl)N1CC2CC1CN2C(=O)Nc1ccc(Oc2ccc(F)cc2)cc1 (stereo not shown) [Example 118, 5-[1-(2,4-Dichloro-phenyl)-ethyl]-2,5-diaza-bicyclo[2.2.1]heptane-2-carboxylic acid [4-(4-fluoro-phenoxy)-phenyl]-amide] | 17600
13 | Cc1ccccc1C(C)N1CC2CC1CN2C(=O)Nc1ccc(-c2ccccc2)cc1 (stereo not shown) [Example 39, 5-(1-o-Tolyl-ethyl)-2,5-diaza-bicyclo[2.2.1]heptane-2-carboxylic acid biphenyl-4-ylamide] | 1060
14 | CC(c1ccc(F)cc1)N1CC2CC1CN2C(=O)Nc1cccc(C(F)(F)F)c1 (stereo not shown) [Example 50, 5-[1-(4-Fluoro-phenyl)-ethyl]-2,5-diaza-bicyclo[2.2.1]heptane-2-carboxylic acid (3-trifluoromethyl-phenyl)-amide] | 2620
15 | CC(c1ccccc1Cl)N1CC2CC1CN2C(=O)c1cc2ccccc2[nH]1 (stereo not shown) [Example 149, {5-[1-(2-Chloro-phenyl)-ethyl]-2,5-diaza-bicyclo[2.2.1]hept-2-yl}-(1H-indol-2-yl)-methanone] | 5840
16 | O=C(c1ccc(C(F)(F)F)cc1)N1CC2CC1CN2C1CCc2ccccc2C1 (stereo not shown) [Example 137, [5-(1,2,3,4-Tetrahydro-naphthalen-2-yl)-2,5-diaza-bicyclo[2.2.1]hept-2-yl]-(4-trifluoromethyl-phenyl)-methanone] | 23200
17 | CC(Cc1ccccc1Cl)N1CC2CC1CN2C(=O)Nc1ccc(C(F)(F)F)cc1 (stereo not shown) [Example 82, 5-[2-(2-Chloro-phenyl)-1-methyl-ethyl]-2,5-diaza-bicyclo[2.2.1]heptane-2-carboxylic acid (4-trifluoromethyl-phenyl)-amide] | 440
18 | Cc1ccc(C(C)N2CC3CC2CN3C(=O)Nc2ccc(Oc3ccc(F)cc3)cc2)c(C)c1 (stereo not shown) [Example 117, 5-[1-(2,4-Dimethyl-phenyl)-ethyl]-2,5-diaza-bicyclo[2.2.1]heptane-2-carboxylic acid [4-(4-fluoro-phenoxy)-phenyl]-amide] | 420
19 | CC(c1ccccc1C(F)(F)F)N1CC2CC1CN2C(=O)Nc1cccc(Oc2ccccc2)c1 (stereo not shown) [Example 63, 5-[1-(2-Trifluoromethyl-phenyl)-ethyl]-2,5-diaza-bicyclo[2.2.1]heptane-2-carboxylic acid (3-phenoxy-phenyl)-amide] | 6100
20 | O=C(Nc1ccc(Oc2ccc(F)cc2)cc1)N1CC2CC1CN2C1CCc2cc(F)ccc21 (stereo not shown) [Example 93, 5-(5-Fluoro-indan-1-yl)-2,5-diaza-bicyclo[2.2.1]heptane-2-carboxylic acid [4-(4-fluoro-phenoxy)-phenyl]-amide] | 310
21 | CC(Cc1ccc(Cl)cc1Cl)N1CC2CC1CN2C(=O)Nc1ccc(C(F)(F)F)cc1 (stereo not shown) [Example 84, 5-[2-(2,4-Dichloro-phenyl)-1-methyl-ethyl]-2,5-diaza-bicyclo[2.2.1]heptane-2-carboxylic acid (4-trifluoromethyl-phenyl)-amide] | 1060
22 | CC(c1ccc(Cl)cc1Cl)N1CC2CC1CN2C(=O)Nc1ccc(Oc2ccc(Cl)cc2)cc1 (stereo not shown) [Example 121, 5-[1-(2,4-Dichloro-phenyl)-ethyl]-2,5-diaza-bicyclo[2.2.1]heptane-2-carboxylic acid [4-(4-chloro-phenoxy)-phenyl]-amide] | 22400
23 | Cc1ccccc1CC(C)N1CC2CC1CN2C(=O)Nc1cccc(C(F)(F)F)c1 (stereo not shown) [Example 67, 5-(1-Methyl-2-o-tolyl-ethyl)-2,5-diaza-bicyclo[2.2.1]heptane-2-carboxylic acid (3-trifluoromethyl-phenyl)-amide] | 1220
24 | CC(Cc1ccc(Cl)cc1)N1CC2CC1CN2C(=O)Nc1ccc(C(F)(F)F)cc1 (stereo not shown) [Example 83, 5-[2-(4-Chloro-phenyl)-1-methyl-ethyl]-2,5-diaza-bicyclo[2.2.1]heptane-2-carboxylic acid (4-trifluoromethyl-phenyl)-amide] | 680

Same assay, conditions: hNav1.8 IC50, SH-SY-5Y hNav1.8 cells; FLIPR membrane potential dye; 10 μM pyrethroid, 250 nM TTX; test concentration range 100 μM-0.05 μM

Row | SMILES | IC50 [nM]
25 | CC(c1ccc(Cl)cc1Cl)N1CC2CC1CN2C(=O)Cc1ccc(Oc2ccc(F)cc2)cc1 (stereo not shown) [Example 155, 1-{5-[1-(2,4-Dichloro-phenyl)-ethyl]-2,5-diaza-bicyclo[2.2.1]hept-2-yl}-2-[4-(4-fluoro-phenoxy)-phenyl]-ethanone] | 18200
